Measurements reported in EP0183174A2, “Substituted phenoxy urea, processes for its preparation and herbicide containing it as active ingredient” (KUMIAI CHEMICAL INDUSTRY CO., LTD., priority 1984, dated 1986).

Experiments:
barnyardgrass = experiment: Test Example 4: herbicidal test by upland foliage treatment; type: in vivo, Echinochloa crus-galli L.; set-up: key: 5: Withered; 4.5: Herbicidal effect (or phytotoxicity) in a range of 90 to 99%; 4: Herbicidal effect (or phytotoxicity) in a range of 80 to 89%; 3.5: Herbicidal effect (or phytotoxicity) in a range of 70 to 79%; 3: Herbicidal effect (or phytotoxicity) in a range of 60 to 69%; 2.5: Herbicidal effect (or phytotoxicity) in a range of 50 to 59%; 2: Herbicidal effect (or phytotoxicity) in a range of 40 to 49%; 1.5: Herbicidal effect (or phytotoxicity) in a range of 30 to 39%; 1: Herbicidal effect (or phytotoxicity) in a range of 20 to 29%; 0.5: Herbicidal effect (or phytotoxicity) in a range of 1 to 19%; 0: No herbicidal effect (or no phytotoxicity)
Protocol: (§1) Into each plastic pot of 120 cm^2, upland soil was filled, then seeds of barnyardgrass, crabgrass, redroot pigweed and rice flatsedge were sown, and they were grown in a greenhouse until barnyardgrass. reached 3-leaf stage. Each wettable powder prepared from the test compound in accordance with Formulation Example 3 was diluted with water to give the amount of the active ingredient corresponding to 4 kg/hectare, and the diluted solution was uniformly sprayed at an application rate of 1000 liter/hectare from the top of plants by means of a small size spray, when barnyardgrass was in the 3-leaf stage. They were grown in a greenhouse, and twenty days after the application, the herbicidal effects were evaluated in accordance with the standards as identified in Table 5.

Japanese bulrush = experiment: Test Example 1: herbicidal test by water treatment in a paddy field; type: in vivo, Scir^pus juncoides Roxb.; set-up: key: 5: Withered; 4.5: Herbicidal effect (or phytotoxicity) in a range of 90 to 99%; 4: Herbicidal effect (or phytotoxicity) in a range of 80 to 89%; 3.5: Herbicidal effect (or phytotoxicity) in a range of 70 to 79%; 3: Herbicidal effect (or phytotoxicity) in a range of 60 to 69%; 2.5: Herbicidal effect (or phytotoxicity) in a range of 50 to 59%; 2: Herbicidal effect (or phytotoxicity) in a range of 40 to 49%; 1.5: Herbicidal effect (or phytotoxicity) in a range of 30 to 39%; 1: Herbicidal effect (or phytotoxicity) in a range of 20 to 29%; 0.5: Herbicidal effect (or phytotoxicity) in a range of 1 to 19%; 0: No herbicidal effect (or no phytotoxicity); conditions: evaluated thirty days after application
Protocol: (§2) Into each porcelain pot having a diameter of 10 cm, paddy soil was filled and puddled, and seeds of barnyardgrass (Echinochloa crus-galli L.), smallflower flatsedge, monochoria and Japanese bulrush were sown, and water was filled in a-depth of 3 cm. One day later, a predetermined amount of the wettable powder prepared in Formulation Example 3 and diluted with water was dropwise applied to the surface of the water (dose of the active ingredient: 4 kg/hectare). Thereafter, they were grown in a green house. Thirty days after the application, the herbicidal effects were evaluated in accordance with the standards as identified in Table 5.

redroot pigweed = experiment: Test Example 4: herbicidal test by upland foliage treatment; type: in vivo, Amaranthus retroflexus L.
Protocol: as §1

smallflower flatsedge = experiment: Test Example 1: herbicidal test by water treatment in a paddy field; type: in vivo, Cvperus diffcrmis L.; set-up: key: 5: Withered; 4.5: Herbicidal effect (or phytotoxicity) in a range of 90 to 99%; 4: Herbicidal effect (or phytotoxicity) in a range of 80 to 89%; 3.5: Herbicidal effect (or phytotoxicity) in a range of 70 to 79%; 3: Herbicidal effect (or phytotoxicity) in a range of 60 to 69%; 2.5: Herbicidal effect (or phytotoxicity) in a range of 50 to 59%; 2: Herbicidal effect (or phytotoxicity) in a range of 40 to 49%; 1.5: Herbicidal effect (or phytotoxicity) in a range of 30 to 39%; 1: Herbicidal effect (or phytotoxicity) in a range of 20 to 29%; 0.5: Herbicidal effect (or phytotoxicity) in a range of 1 to 19%; 0: No herbicidal effect (or no phytotoxicity); conditions: evaluated thirty days after application
Protocol: as §2

crabgrass = experiment: Test Example 3: herbicidal test by upland soil treatment; type: in vivo, Digitaria sanquinalis L.; set-up: key: 5: Withered; 4.5: Herbicidal effect (or phytotoxicity) in a range of 90 to 99%; 4: Herbicidal effect (or phytotoxicity) in a range of 80 to 89%; 3.5: Herbicidal effect (or phytotoxicity) in a range of 70 to 79%; 3: Herbicidal effect (or phytotoxicity) in a range of 60 to 69%; 2.5: Herbicidal effect (or phytotoxicity) in a range of 50 to 59%; 2: Herbicidal effect (or phytotoxicity) in a range of 40 to 49%; 1.5: Herbicidal effect (or phytotoxicity) in a range of 30 to 39%; 1: Herbicidal effect (or phytotoxicity) in a range of 20 to 29%; 0.5: Herbicidal effect (or phytotoxicity) in a range of 1 to 19%; 0: No herbicidal effect (or no phytotoxicity); conditions: evaluated twenty days after application
From the text: Into each plastic pot of 600 cm^2, upland soil was filled, then seeds of barnyardgrass, crabgrass, green foxtail, redroot pigweed, rice flatsedge, rice, wheat, maize, soybean, cotton and sugar beet were sown, and they were covered with soil. A predetermined amount of the wettable powder prepared from the test compound in accordance with Formulation Example 3 and diluted with water, was uniformly applied to the surface of the soil at an application rate of 1000 liter/hectare by means of a small size spray. They were grown in a greenhouse, and twenty days after the application, the herbicidal effects and phytotoxicity were evaluated in accordance with the standards as identified in Table 5.

rice flatsedge = experiment: Test Example 4: herbicidal test by upland foliage treatment; type: in vivo, Cy^perus iria L.; set-up: key: 5: Withered; 4.5: Herbicidal effect (or phytotoxicity) in a range of 90 to 99%; 4: Herbicidal effect (or phytotoxicity) in a range of 80 to 89%; 3.5: Herbicidal effect (or phytotoxicity) in a range of 70 to 79%; 3: Herbicidal effect (or phytotoxicity) in a range of 60 to 69%; 2.5: Herbicidal effect (or phytotoxicity) in a range of 50 to 59%; 2: Herbicidal effect (or phytotoxicity) in a range of 40 to 49%; 1.5: Herbicidal effect (or phytotoxicity) in a range of 30 to 39%; 1: Herbicidal effect (or phytotoxicity) in a range of 20 to 29%; 0.5: Herbicidal effect (or phytotoxicity) in a range of 1 to 19%; 0: No herbicidal effect (or no phytotoxicity)
Protocol: as §1

[1] = active ingredient 4 kg/hectare, foliage spray 1000 liter/hectare at 3-leaf stage of barnyardgrass, twenty days after application
[2] = dose of the active ingredient 4 kg/hectare, wettable powder applied to water surface one day after sowing
[3] = water treatment in paddy field pot, dose of active ingredient 4 kg/hectare
[4] = upland foliage treatment, 4 kg/hectare active ingredient, sprayed at 1000 liter/hectare at barnyardgrass 3-leaf stage, evaluated twenty days after application

Compound | Herbicidal effects Barnyard-grass (barnyardgrass; [1]) | Herbicidal effects Japanese bulrush (Japanese bulrush; [2]) | Herbicidal effects Redroot pigweed (redroot pigweed; [1]) | Herbicidal effects Small flower flatsedge (smallflower flatsedge; [2]) | Herbicidal effects Crab-grass (crabgrass; Dose 1 kg/HA) | Herbicidal effects Crab-grass (crabgrass; Dose 4 kg/HA) | Herbicidal effects Rice flatsedge (rice flatsedge; [1]) | Herbicidal effects Japanese bulrush (Japanese bulrush; [3]) | Herbicidal effects Small flower flatsedge (smallflower flatsedge; [3]) | Herbicidal effects Barnyard-grass (barnyardgrass; [4]) | Herbicidal effects Redroot pigweed (redroot pigweed; [4]) | Herbicidal effects Rice flatsedge (rice flatsedge; [4])
CN(C)C(=O)NOc1cc(Cl)ccc1Cl [Compound No. 1, 3-(2,5-Dichlorophenoxy)-1,1-dimethyl urea] | 4 (Herbicidal effect (or phytotoxicity) in a range of 80 to 89%) | 5 | 4 (Herbicidal effect (or phytotoxicity) in a range of 80 to 89%) | 5 | 5 | 5 | 5 |  |  |  |  | 
CC(C)N(C)C(=O)NOc1cc(Cl)cc(Cl)c1 [Compound No. 186, 3-(3,5-Dichlorophenoxy)-1-isopropyl-1-methyl urea trichloroacetate] | 5 |  | 2 (Herbicidal effect (or phytotoxicity) in a range of 40 to 49%) |  | 5 | 5 | 4 (Herbicidal effect (or phytotoxicity) in a range of 80 to 89%) | 5 | 5 |  |  | 
CON(C)C(=O)NOc1cc(Cl)ccc1Cl [Compound No. 242, 3-(2,5-Dichlorophenoxy)-1-methoxy-1-methyl urea] |  |  |  |  | 5 | 5 |  | 5 | 5 | 4 (Herbicidal effect (or phytotoxicity) in a range of 80 to 89%) | 3 (Herbicidal effect (or phytotoxicity) in a range of 60 to 69%) | 5
COCCNC(=O)NOc1cc(Cl)ccc1Cl [Compound No. 243] |  |  |  |  | 5 | 5 |  | 5 | 5 | 5 | 4 (Herbicidal effect (or phytotoxicity) in a range of 80 to 89%) | 5
